Measurements: patent publication US9090593B2, “Bicyclic compounds as Pim inhibitors” (AMGEN INC., priority 2010, dated 2015)

Tests used:
[1] = molecular target: T1, full length recombinant Pim-1 protein (Homo sapiens, UniProt P11309); assay: Pim-1 enzyme assay (HTRF, phosphorylation of biotinylated-BAD (S112) peptide); assay type: biochemical; conditions: read-out: Pim_1_IC50
T1 construct: by full length recombinant Pim-1, Pim-2, or Pim-3 protein; hexahistidine tag followed by a thrombin cleavage site (N); made in house; host or cells: Sf9 (baculovirus) or E. coli (pET28)
T1 sequence (P11309 whole entry): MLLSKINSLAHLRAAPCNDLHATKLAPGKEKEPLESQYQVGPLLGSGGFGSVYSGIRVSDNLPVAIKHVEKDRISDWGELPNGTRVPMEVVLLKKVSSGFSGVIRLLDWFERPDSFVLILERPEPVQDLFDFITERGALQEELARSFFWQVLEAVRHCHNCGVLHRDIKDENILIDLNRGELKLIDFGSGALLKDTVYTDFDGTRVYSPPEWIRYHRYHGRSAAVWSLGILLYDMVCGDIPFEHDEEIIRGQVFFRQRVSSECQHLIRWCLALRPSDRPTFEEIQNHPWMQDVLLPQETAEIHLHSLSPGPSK
In short: (§1)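 Kinase: full-length human Pim-1/Pim-2, His6-thrombin tagged. Substrate biotin-BAD (S112) peptide. Buffer 60 mM Hepes pH 7.0, 0.05% BSA, 2 mM DTT. Stop 3 mM EDTA. Detection HTRF (Eu anti-pBAD/SA-APC). IC50 by 4-parameter logistic on POC.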

[2] = molecular target: T2, full length recombinant Pim-2 protein (Homo sapiens, UniProt Q9P1W9); assay: Pim-2 enzyme assay (HTRF, phosphorylation of biotinylated-BAD (S112) peptide); assay type: biochemical; conditions: read-out: Pim2_IC50
T2 construct: by full length recombinant Pim-1, Pim-2, or Pim-3 protein; hexahistidine tag followed by a thrombin cleavage site (N); made in house; host or cells: Sf9 (baculovirus) or E. coli (pET28)
T2 sequence (Q9P1W9 whole entry): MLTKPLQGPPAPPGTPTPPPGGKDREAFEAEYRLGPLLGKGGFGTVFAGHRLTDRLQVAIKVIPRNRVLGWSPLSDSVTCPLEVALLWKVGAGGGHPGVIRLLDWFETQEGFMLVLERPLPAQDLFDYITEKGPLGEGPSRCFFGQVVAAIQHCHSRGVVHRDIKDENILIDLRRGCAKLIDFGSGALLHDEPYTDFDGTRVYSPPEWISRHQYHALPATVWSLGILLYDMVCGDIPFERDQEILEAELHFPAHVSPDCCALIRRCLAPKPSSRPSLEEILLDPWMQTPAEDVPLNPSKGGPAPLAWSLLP
In short: as §1

[3] = molecular target: T3, Pim-1 stably transfected into the U2OS human osteogenic sarcoma line (Homo sapiens, UniProt P11309); assay: Pim cell assay, phospho-BAD normalized against total BAD, U2OS stably transfected with Pim-1; assay type: cell-based; conditions: U2OS stably transfected with Pim-1; phospho-BAD normalized against total BAD; 29 min incubation; read-out: Pim1_Cell_IC50_
T3 construct: expressed in transfected cells; host or cells: U2OS human osteogenic sarcoma line
T3 sequence (P11309 whole entry): as the sequence (P11309 whole entry) above
In short: (§2)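 U2OS cells stably expressing Pim-1 or Pim-2 were plated overnight at 37 °C, then dosed over a 10-point curve (final 0.3% DMSO; DMSO alone as high control). Lysates assayed for phospho- and total BAD by Meso Scale immunoassay; % phosphoprotein = (2×phospho)/(phospho+total)×100.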

[4] = molecular target: T4, Pim-2 stably transfected into the U2OS human osteogenic sarcoma line (Homo sapiens, UniProt Q9P1W9); assay: Pim cell assay, phospho-BAD normalized against total BAD, U2OS stably transfected with Pim-2; assay type: cell-based; conditions: U2OS stably transfected with Pim-2; phospho-BAD normalized against total BAD; 29 min incubation; read-out: Pim2_Cell_IC50_
T4 construct: expressed in transfected cells; host or cells: U2OS human osteogenic sarcoma line
T4 sequence (Q9P1W9 whole entry): as the sequence (Q9P1W9 whole entry) above
In short: as §2

[5] = system: KMS-Cell; assay: KMS cell IC50 (Table 4); assay type: cell-based; conditions: KMS cells

SMILES | IC50 [1] | IC50 [2] | IC50 [3] | IC50 [4] | IC50 [5]
Clc1ccccc1-c1ccc2[nH]nc(-c3cncc(O[C@H]4CNCCC45CC5)n3)c2c1 [Example 406] | 0.002 µM | 0.001 µM | 0.46 µM | 5.31 µM | 2.36 µM
CC(C)C1CCNCC1Oc1cncc(-c2n[nH]c3ccc(-c4c(F)cccc4F)cc23)n1 (single isomer, unassigned) [Example 395] | 0.006 µM | 0.009 µM |  |  | 10 µM
CC1CNCC(Oc2cncc(-c3n[nH]c4ccc(-c5c(F)cccc5F)cc34)n2)C1 (single isomer, unassigned) [Example 469] | 0.002 µM | 0.004 µM |  |  | 3.05 µM
c1cc2[nH]nc(-c3cncc(O[C@H]4CNCCC45CC5)n3)c2cc1C1CC1 [Example 446] | 0.003 µM | 0.005 µM |  |  | 1.73 µM
O=C(O)c1ccc2[nH]nc(-c3cncc(N[C@@H]4CCCNC4)n3)c2c1 [Example 495] | 0.07 µM | 0.159 µM |  |  | > 15.8 µM
CC(O)c1cccc(-c2ccc3[nH]cc(-c4cncc(O[C@@H]5CCCNC5)n4)c3c2)c1 (mixture of isomers) [Example 359] | 0.009 µM | 0.021 µM |  |  | 4.84 µM
c1coc(-c2ccc3[nH]cc(-c4cncc(N[C@@H]5CCCNC5)n4)c3c2)n1 [Example 542] | 0.002 µM | 0.024 µM |  |  | 15.9 µM
Fc1cccc(F)c1-c1ccc2[nH]cc(-c3cncc(OC4CNCCC45CC5)n3)c2c1 (single isomer, unassigned) [Example 438] | 0.001 µM | 0.002 µM |  |  | 11.9 µM
c1cc2[nH]nc(-c3cncc(OC4CCNCC4)n3)c2cc1-c1cncc(C2CC2)n1 [Example 364, 5-(6-cyclopropyl-2-pyrazinyl)-3-(6-(4-piperidinyloxy)-2-pyrazinyl)-1H-indazole] |  | 0.005 µM | 0.022 µM | 3.46 µM | 5.85 µM
NS(=O)(=O)c1ccc(-c2ccc3[nH]nc(-c4cncc(O[C@H]5CNCCC56CC6)n4)c3c2)c(F)c1 [Example 463] | 0.002 µM | 0.001 µM |  |  | 1.61 µM
N#CCc1ccc2[nH]nc(-c3cncc(O[C@H]4CNCCC45CC5)n3)c2c1 [Example 269, (3-(6-((4R)-6-azaspiro[25]oct-4-yloxy)-2-pyrazinyl)-1H-indazol-5-yl)acetonitrile 2,2,2-trifluoroacetate] | 0.02 µM | 0.099 µM |  |  | 7.38 µM
CC(c1ccc2[nH]nc(-c3cncc(O[C@H]4CNCCC45CC5)n3)c2c1)C(F)(F)F (single isomer, unassigned) [Example 260] | 0.009 µM | 0.005 µM |  |  | 2.19 µM
O=c1cc(-c2n[nH]c3ccc(-c4c(F)cccc4F)cc23)nc(OC2CNCCC2F)[nH]1 (stereo not drawn) [Example 554] | 0.007 µM | 0.01 µM |  |  | 6.26 µM
FC(F)(F)C1(c2ccc3[nH]nc(-c4cncc(O[C@H]5CNCCC56CC6)n4)c3c2)CC1 [Example 261, 3-(6-((4R)-6-azaspiro[2.5]oct-4-yloxy)-2-pyrazinyl)-5-(1-(trifluoromethyl)cyclopropyl)-1H-indazole] | 0.006 µM | 0.004 µM |  |  | 1.49 µM
COC(=O)c1ccc2[nH]nc(-c3cncc(O[C@H]4CNCCC45CC5)n3)c2c1 [Example 265, methyl 3-(6-((4R)-6-azaspiro[25]oct-4-yloxy)-2-pyrazinyl)-1H-indazole-5-carboxylate bis(2,2,2-trifluoroacetate)] | 0.009 µM | 0.035 µM |  |  | 5.78 µM
c1coc(-c2ccc3[nH]nc(-c4cncc(N[C@@H]5CCCNC5)n4)c3c2)n1 [Example 541] | 0.002 µM | 0.024 µM |  |  | 6.04 µM
Fc1cccc(F)c1-c1ccc2[nH]nc(-c3cncc(CC4CCCNC4)n3)c2c1 (racemic) [Example 272, 5-(2,6-difluorophenyl)-3-(6-(3-piperidinylmethyl)-2-pyrazinyl)-1H-indazole ditrifluoroacetate] | 0.013 µM | 0.054 µM |  |  | 13 µM
Fc1ccnc(F)c1-c1ccc2[nH]nc(-c3cncc(O[C@H]4CNCCC45CC5)n3)c2c1 [Example 451] | 0.003 µM | 0.009 µM |  |  | 1.47 µM
CC1CNCC(Oc2nc(O)cc(-c3n[nH]c4ccc(-c5c(F)cccc5F)cc34)n2)C1 (single isomer, unassigned) [Example 569] | 0.001 µM | 0.001 µM |  |  | 0.282 µM

SMILES | IC50 [1] | IC50 [2] | IC50 [3] | IC50 [4] | IC50 [5]
O=C(NC1CC1)c1cccc(-c2ccc3[nH]nc(-c4cncc(O[C@H]5CNCCC56CC6)n4)c3c2)c1 [Example 247, 3-(3-(6-((4R)-6-azaspiro[25]oct-4-yloxy)-2-pyrazinyl)-1H-indazol-5-yl)-N-cyclopropylbenzamide] | 0.004 µM | 0.004 µM |  |  | 4.31 µM
C=C(c1ccc2[nH]nc(-c3cncc(O[C@H]4CNCCC45CC5)n3)c2c1)C(F)(F)F [Example 257, 3-(6-((4R)-6-azaspiro[2.5]oct-4-yloxy)-2-pyrazinyl)-5-(1-(trifluoromethyl)ethenyl)-1H-indazole] | 0.004 µM | 0.002 µM |  |  | 1.17 µM
c1ccc(-c2ccc3[nH]cc(-c4cncc(O[C@@H]5CCCNC5)n4)c3c2)cc1 [Example 358] | 0.004 µM | 0.02 µM |  |  | 8.52 µM
c1cc(-c2ccc3[nH]cc(-c4cncc(O[C@@H]5CCCNC5)n4)c3c2)cc(-c2cc[nH]n2)c1 [Example 351] | 0.02 µM | 0.178 µM |  |  | > 31.6 µM
O[C@@H]1CN(c2cncc(-c3n[nH]c4ccc(-c5c(F)cccc5F)cc34)n2)CC[C@@H]1O (racemic) [Example 248, cis-1-(6-(5-(2,6-difluorophenyl)-1H-indazol-3-yl)-2-pyrazinyl)-3,4-piperidinediol] | 0.017 µM | 0.043 µM |  |  | > 31.6 µM
O=c1cc(-c2n[nH]c3ccc(-c4c(F)cccc4F)cc23)nc(N[C@@H]2CCCNC2)[nH]1 [Example 282, (R)-6-(5-(2,6-difluorophenyl)-1H-indazol-3-yl)-2-(piperidin-3-ylamino)pyrimidin-4(3H)-one] |  |  | 1.17 µM | > 10 µM | 2.65 µM
N#Cc1cccc(F)c1-c1ccc2[nH]nc(-c3cncc(O[C@H]4CNCCC45CC5)n3)c2c1 [Example 409] | 0.001 µM | 0.001 µM |  |  | 2.68 µM
C=C(C)c1ccc2[nH]nc(-c3cncc(O[C@H]4CNCCC45CC5)n3)c2c1 [Example 256, 3-(6-((4R)-6-azaspiro[2.5]oct-4-yloxy)-2-pyrazinyl)-5-(1-methylethenyl)-1H-indazole] | 0.006 µM | 0.011 µM |  |  | 3.28 µM
Fc1cccc(F)c1-c1ccc2[nH]nc(-c3cncc(OC4CCNCC45CC5)n3)c2c1 (single isomer, unassigned) [Example 430] | 0.001 µM | 0.006 µM |  |  | 7.85 µM
Fc1cccc(F)c1-c1ccc2[nH]nc(-c3cncc(OC4C=CCNC4)n3)c2c1 (single isomer, unassigned) [Example 427] | 0.013 µM | 0.037 µM |  |  | > 15.8 µM
Fc1cccc(F)c1-c1ccc2[nH]nc(-c3cncc(OC4CNCC5CC54)n3)c2c1 (stereo not drawn) [Example 444] | 0.004 µM | 0.028 µM |  |  | 5.05 µM
c1cc(-c2ccc3[nH]cc(-c4cncc(O[C@@H]5CCCNC5)n4)c3c2)cc(-c2ccno2)c1 [Example 356] | 0.006 µM | 0.041 µM |  |  | 12.6 µM
CC1CNCC(Oc2nc(O)cc(-c3n[nH]c4ccc(-c5c(F)cccc5F)cc34)n2)C1 (single isomer, unassigned) [Example 568] | 0.02 µM | 0.021 µM |  |  | 2.09 µM
c1cc2[nH]nc(-c3cncc(O[C@H]4CNCCC45CC5)n3)c2cc1C1CCCC1 [Example 447] | 0.004 µM | 0.004 µM |  |  | 3.16 µM
CC1(c2ccc3[nH]nc(-c4cncc(O[C@H]5CNCCC56CC6)n4)c3c2)CC1 [Example 262, 3-(6-((4R)-6-azaspiro[2.5]oct-4-yloxy)-2-pyrazinyl)-5-(1-methylcyclopropyl)-1H-indazole] | 0.004 µM | 0.005 µM |  |  | 2.22 µM
CC(C)c1ccc2[nH]nc(-c3cncc(O[C@H]4CNCCC45CC5)n3)c2c1 [Example 253, 3-(6-((4R)-6-azaspiro[2.5]oct-4-yloxy)-2-pyrazinyl)-5-(1-methylethyl)-1H-indazole] | 0.009 µM | 0.009 µM |  |  | 5.58 µM
CC[C@@H]1CCNC[C@H]1Oc1cncc(-c2n[nH]c3ccc(-c4c(F)cccc4F)cc23)n1 [Example 397] | 0.02 µM | 0.144 µM |  |  | 14.3 µM
O=c1cc(-c2n[nH]c3ccc(-c4c(F)cccc4F)cc23)nc(O[C@@H]2CCCNC2)[nH]1 [Example 529] | 0.002 µM | 0.002 µM |  |  | 2.62 µM
